Data taken from patent US7238376B2, “Black tea extract for prevention of disease” (Rutgers, The State University, priority 2000, dated 2007).

Assays:
[1] = system: human A431 carcinoma cells; conditions: compared with EGCG; Liang et al. 1999; cited from earlier work
W138VA cells = assay: proliferation assay, crystal violet staining; format: cell-based, human; conditions: 0, 1, 5, 10, 25 and 50 μM; 4 days
Method: The effects of black tea polyphenols on proliferation of W138 and W138VA cells was examined. W138 diploid fibroblasts have a finite life span whereas the virally transformed W138VA cells are cancerous in nude mice. Both cell types were grown in 24 well plates in the presence of increasing doses of the theaflavin polyphenols, TF-1, TF-2 and TF-3 (0, 1, 5, 10, 25 and 50 μM). Viable cells were stained with crystal violet 4 days after plating. A decrease in staining intensity relative to the untreated control cells were indicative of growth inhibition by the polyphenol compound. Of the three theaflavin polyphenols tested, only TF-2 had significant effects on cells growth. […] The IC50 value for TF-2 and growth inhibition of W138VA cells was estimated to be 3 μM.
Normal human W138 (cell strain AG06814E, PDL=16) and the SV40 virally transformed W138 cells (cell strain AG07217) were obtained from Coriell Institute for Medical Research (Camden, N.J.). Human colon cancer cells, Caco-2 (ATCC #HTB-37) and the matched normal colon cells CCD-33Co (ATCC #CRL-1539) were obtained from the American Type Culture Collection (Rockville, Md.). Cells were cultured in Dulbecco's medium containing 10% fetal bovine serum at 37° C., 5% CO2. […] Cell growth was measured by counting viable cells using the Trypan Blue exclusion method. […] Proliferation was monitored by crystal-violet staining. […]

EGF and PDGF receptors = conditions: compared with EGCG; Liang et al. 1999; cited from earlier work
Cox-2 gene expression = Cox-2 gene expression in Caco-2 cells (Northern blot / RT-PCR); format: cell-based, human; conditions: TF-2 effects seen at 50 to 100 μM
Method: All three polyphenols were tested, TF-1, TF-2 and TF-3.
The effect of TF-2 on the time course of Cox-2 gene expression in Caco-2 cells was then examined. Cox-2 mRNA was detectable in quiescent Caco-2 cells, consistent with the finding that colon cancer cells have elevated Cox-2 gene expression. Fresh serum induced a 2- to 4-fold increase in Cox-2 expression in Caco-2 cells as early as 4 hours after stimulation; this was expected because of the known stimulatory effects of serum factors.
Confluent cultures were serum-deprived for 48 hours. Cells were then treated with 10% fresh fetal bovine serum in the presence or absence of the black tea extracts (10, 20, 40, 50, 80 or 100 μM) to initiate the progression of the cell cycle. Cells were harvested at either 4 or 12 hours for total RNA isolation. Total RNA samples were resolved by electrophoresis on 1% agarose-formaldehyde gel (6 μg per lane) and transferred onto a nylon membrane. Northern blot analysis was performed.
Confluent cultures were first serum-deprived for 48 hours and then stimulated with 10% fresh fetal bovine serum in the absence or presence of black tea extracts. Cells were harvested and total RNA was prepared using a kit (QIAGEN, Chatsworth, Calif.). Total RNA (1 μg) from each cell sample was reverse transcribed into cDNA by incubating with RNase H reverse transcriptase (Gibco BRL, Grand Island, N.Y.) using oligo(dT)12-18 as primer. For PCR amplification, gene specific primers were designed. The sequences of the sense and antisense primers for various genes were: […]
PCR was performed under conditions that allowed the amounts of PCR products to be proportional to the amounts of RNA input. The housekeeping gene, glyceraldehyde-3-phosphate dehydrogenase (GAPDH) was used as an internal control. The PCR products were analyzed by electrophoresis on 1% agarose gel containing 0.5 μg/ml ethidium bromide.

[2] = system: human lymphoid leukemia cells and human stomach tumor cells; conditions: Hibasami et al. 1998; cited from earlier work
[3] = system: Caco-2 colorectal cancer cells, Hs578T breast cancer cells, and SV40-transformed W138 cells; conditions: Chen et al. 1998; cited from earlier work
normal counterparts = conditions: Chen et al. 1998; cited from earlier work

Molecule | inhibiting the growth of human A431 carcinoma cells [1] | differential growth inhibition of W138 versus W138VA cells (W138VA cells) | reducing autophosphorylation of EGF and PDGF receptors (EGF and PDGF receptors) | Cox-2 gene expression in Caco-2 cells (Cox-2 gene expression) | apoptosis in human lymphoid leukemia cells and human stomach tumor cells [2] | growth of human tumor cells [3] | growth of normal counterparts (normal counterparts)
O=C(O[C@@H]1Cc2c(O)cc(O)cc2O[C@@H]1c1cc(O)c(=O)c2c(O)c(O)cc([C@H]3Oc4cc(O)cc(O)c4C[C@H]3OC(=O)c3cc(O)c(O)c(O)c3)c2c1)c1cc(O)c(O)c(O)c1 [TF-3, theaflavin-3,3′-digallate] | as potent as EGCG | did not exhibit this differential growth inhibition | as potent as EGCG | failed to affect Cox-2 gene expression | can induce apoptosis | – | –
O=c1c(O)cc([C@H]2Oc3cc(O)cc(O)c3C[C@H]2O)cc2c([C@H]3Oc4cc(O)cc(O)c4C[C@H]3O)cc(O)c(O)c12 [TF-1, theaflavin] | – | did not exhibit this differential growth inhibition | – | failed to affect Cox-2 gene expression | can induce apoptosis | – | –
(−)epigallocatechin gallate [EGCG] | – | – | – | suppressed Cox-2 gene expression it was not as potent as TF-2 | – | inhibits growth | little or no inhibitory effect
